The values below come from EP4755378A1, “DYRK2 INHIBITORS FOR TREATING TUMOURS WITH THE HYPERACTIVE MAPK/ERK PATHWAY” (Universidad de Córdoba, priority 2023, dated 2025).

Common to all, as to format: cell-based
One test relates to DYRK2. Kind of test: Western-blot of DYRK2 protein levels in HEK-293T cells. To be noted: for DYRK2 levels: HEK-293T transfected with Flag-DYRK2, inhibitor 10 µM for 24 hours, Figure 13B.
The test system of a further test is pERK1/2-T202/T204. Kind of test: Western-blot of ERK1/2 activation loop phosphorylation in HEK-293T cells. As to conditions: Dabrafenib 10 µM 24 hours, EGF 50-100 ng/ml 5 minutes, Figure 13A.
The subject of the next test is HCT116 cells. Kind of test: XTT cell viability assay, HCT116 cells. As to conditions: HCT116 (mutated RAS), 48 hours, Figure 14. For orientation: Tetrazolium dyes change colour on reduction, which living cells bring about.
In a further test the test system is A549 cells. Nature of the test: XTT cell viability assay, A549 cells. To be noted: A549 (mutated RAS), 48 hours, Figure 15.
The test system of a further test is HT-29 cells. Nature of the test: XTT cell viability assay, HT-29 cells. To be noted: HT-29 (B-RAF V600E), different doses of Dabrafenib, with or without LDN192960 10 µM, 48 hours, Figure 16.

In the case of `N#CC(=C(/N)Sc1ccccc1N)/C(C#N)=C(\N)Sc1ccccc1N` [U0126], the DYRK2 levels entry with DYRK2 is “increasing DYRK2 levels”.

Turning to `CC(C)(C)c1nc(-c2cccc(NS(=O)(=O)c3c(F)cccc3F)c2F)c(-c2ccnc(N)n2)s1` [Dabrafenib], the pathway activation result in the test with pERK1/2-T202/T204 is reported as “reduction in pathway activation”. For the same molecule, the “cell viability (tumour survival)” value in the test with HCT116 cells (low doses of Dabrafenib) and in the test on A549 cells (low doses of Dabrafenib) was “increase in tumour survival compared to the control” each time. Also, the cell viability entry in the test on HCT116 cells (very high doses of Dabrafenib) is recorded as “slightly reducing cell viability”; in the test with A549 cells (very high doses of Dabrafenib) it was “slightly reducing cell viability”; in the test with HT-29 cells it was “dose-dependent decrease in viability”. The DYRK2 stabilisation entry in the test with DYRK2 (HEK-293T transfected with Flag-DYRK2, Dabrafenib 10 µM 24 hours, Figure 13A) was “DYRK2 stabilisation was observed”. Moreover, the DYRK2 levels entry with DYRK2 is recorded as “increasing DYRK2 levels”.
